Laboratory results reported in US20150105252A1, “SUBSTITUTED PYRAZOLES AS HERBICIDES” (E I DU PONT DE NEMOURS AND COMPANY, priority 2013, published 2015).

Key:
Settings in all cases: scale 0 to 100
[1] = tested on: bluegrass; experiment: Test D preemergence; type: in vivo, Poa annua
Summary of the method: (§1)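 Preemergence: seeds sown in silt loam and sprayed with compounds in a non-phytotoxic solvent with surfactant; postemergence: plants at 2 to 18 cm (1- to 4-leaf stage) in peat-based medium treated likewise. After 14 to 21 days in controlled growth conditions, injury rated visually versus controls on 0 (no effect) to 100 (complete control) scale.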

[2] = tested on: field poppy; experiment: Test D preemergence; type: in vivo, Papaver rhoeas
Text: (§2) Seeds of plant species selected from bluegrass (annual bluegrass, Poa annua), blackgrass (Alopecurus myosuroides), canarygrass (littleseed canarygrass, Phalaris minor), chickweed (common chickweed, Stellaria media), galium (catchweed bedstraw, Galium aparine), bromegrass, downy (downy bromegrass, Bromus tectorum), field poppy (Papaver rhoeas), field violet (Viola arvensis), foxtail, green (green foxtail, Setaria viridis), deadnettle (henbit deadnettle, Lamium amplexicaule), ryegrass, Italian (Italian ryegrass, Lolium multiflorum), kochia (Kochia scoparia), lambsquarters (Chenopodium album), oilseed rape (Brassica napus), pigweed (redroot pigweed, Amaranthus retroflexus), chamomile (scentless chamomile, Matricaria inodora), speedwell (bird's-eye speedwell, Veronica persica), barley, spring (spring barley, Hordeum vulgare), wheat, spring (spring wheat, Triticum aestivum), buckwheat, wild (wild buckwheat, Polygonum convolvulus), mustard, wild (wild mustard, Sinapis arvensis), oat, wild (wild oat, Avena fatua), radish, wild (wild radish, Raphanus raphanistrum), windgrass (Apera spica-venti), Russian thistle (Salsola kali), barley, winter (winter barley, Hordeum vulgare), and wheat, winter (winter wheat, Triticum aestivum) were planted into a silt loam soil and treated preemergence with test chemicals formulated in a non-phytotoxic solvent mixture which included a surfactant.
(§3) At the same time, these species were planted in pots containing Redi-Earth® planting medium (Scotts Company, 14111 Scottslawn Road, Marysville, Ohio 43041) comprising spaghnum peat moss, vermiculite, wetting agent and starter nutrients and treated with postemergence applications of the test chemicals formulated in the same manner. Plants ranged in height from 2 to 18 cm (1- to 4-leaf stage). Treated plants and controls were maintained in a controlled growth environment for 14 to 21 days after which time all species were compared to controls and visually evaluated. Plant response ratings, summarized in Table D, are based on a scale of 0 to 100 where 0 is no effect and 100 is complete control. A dash (-) response means no test result.

[3] = tested on: lambsquarters; experiment: Test D preemergence; type: in vivo, Chenopodium album
Summary of the method: as §1

[4] = tested on: ryegrass, Italian; experiment: Test D postemergence; type: in vivo, Lolium multiflorum
Text: as §2, §3

[5] = tested on: mustard, wild; experiment: Test D preemergence; type: in vivo, Sinapis arvensis
Text: as §2, §3

[6] = tested on: blackgrass; experiment: Test D preemergence; type: in vivo, Alopecurus myosuroides
Text: as §2, §3

[7] = tested on: foxtail, green; experiment: Test D preemergence; type: in vivo, Setaria viridis
Text: as §2, §3

[8] = tested on: galium; experiment: Test D preemergence; type: in vivo, Galium aparine
Summary of the method: as §1

[9] = tested on: wheat, spring; experiment: Test D postemergence; type: in vivo, Triticum aestivum
Text: as §2, §3

[10] = tested on: wheat, winter; experiment: Test D postemergence; type: in vivo, Triticum aestivum
Text: as §2, §3

Row | Compound | Plant response rating, Bluegrass ([1]; 31 g ai/ha) | Plant response rating, Bluegrass ([1]; 62 g ai/ha) | Plant response rating, Bluegrass ([1]; 125 g ai/ha) | Plant response rating, Bluegrass ([1]; 250 g ai/ha) | Plant response rating, Field Poppy ([2]; 62 g ai/ha) | Plant response rating, Field Poppy ([2]; 125 g ai/ha) | Plant response rating, Field Poppy ([2]; 250 g ai/ha) | Plant response rating, Lambsquarters ([3]; 62 g ai/ha) | Plant response rating, Lambsquarters ([3]; 125 g ai/ha) | Plant response rating, Lambsquarters ([3]; 250 g ai/ha) | Ryegrass, Italian plant response rating ([4]; Postemergence, 31 g ai/ha) | Ryegrass, Italian plant response rating ([4]; Postemergence, 125 g ai/ha) | Ryegrass, Italian plant response rating ([4]; Postemergence, 250 g ai/ha) | Ryegrass, Italian plant response rating ([4]; postemergence, 62 g ai/ha) | Plant response rating, Mustard, Wild ([5]; 62 g ai/ha) | Plant response rating, Mustard, Wild ([5]; 125 g ai/ha) | Plant response rating, Mustard, Wild ([5]; 250 g ai/ha) | Plant response rating, Blackgrass ([6]; 31 g ai/ha) | Plant response rating, Blackgrass ([6]; 62 g ai/ha) | Plant response rating, Blackgrass ([6]; 125 g ai/ha) | further results
1 | CCCc1cc(C(=O)NCC(F)(F)F)nn1Cc1cc(C(F)(F)F)nn1C [Compound 138] | 20 | 55 | 90 | 100 | 100 | 100 | 100 | 85 | 100 | 100 | 15 | 15 | 55 | 15 | 100 | 100 | 100 | 15 | 30 | 85 | Plant response rating, Blackgrass ([6]; 250 g ai/ha): 100; Plant response rating, Foxtail, Green ([7]; 62 g ai/ha): 100; Plant response rating, Foxtail, Green ([7]; 125 g ai/ha): 100; Plant response rating, Foxtail, Green ([7]; 250 g ai/ha): 100; Plant response rating, Galium ([8]; 62 g ai/ha): 100; Plant response rating, Galium ([8]; 125 g ai/ha): 100; Plant response rating, Galium ([8]; 250 g ai/ha): 100; Wheat, Spring plant response rating ([9]; Postemergence, 31 g ai/ha): 15; Wheat, Spring plant response rating ([9]; Postemergence, 125 g ai/ha): 15; Wheat, Spring plant response rating ([9]; Postemergence, 250 g ai/ha): 25; Wheat, Spring plant response rating ([9]; postemergence, 62 g ai/ha): 15; Wheat, Winter plant response rating ([10]; Postemergence, 31 g ai/ha): 15; Wheat, Winter plant response rating ([10]; Postemergence, 125 g ai/ha): 20; Wheat, Winter plant response rating ([10]; Postemergence, 250 g ai/ha): 35; Wheat, Winter plant response rating ([10]; postemergence, 62 g ai/ha): 15
2 | CCOc1cc(C(=O)NC2CC2)nn1Cc1ccnc(C(F)(F)F)c1 [Compound 189] | 15 | 50 | 70 | 85 | 100 | 100 | 100 | 100 | 100 | 100 | 10 | 20 | 30 | 10 | 100 | 100 | 100 | 35 | 60 | 80 | Plant response rating, Blackgrass ([6]; 250 g ai/ha): 100; Plant response rating, Foxtail, Green ([7]; 62 g ai/ha): 100; Plant response rating, Foxtail, Green ([7]; 125 g ai/ha): 100; Plant response rating, Foxtail, Green ([7]; 250 g ai/ha): 100; Plant response rating, Galium ([8]; 62 g ai/ha): 75; Plant response rating, Galium ([8]; 125 g ai/ha): 70; Plant response rating, Galium ([8]; 250 g ai/ha): 100; Wheat, Spring plant response rating ([9]; Postemergence, 31 g ai/ha): 0; Wheat, Spring plant response rating ([9]; Postemergence, 125 g ai/ha): 5; Wheat, Spring plant response rating ([9]; Postemergence, 250 g ai/ha): 25; Wheat, Spring plant response rating ([9]; postemergence, 62 g ai/ha): 0; Wheat, Winter plant response rating ([10]; Postemergence, 31 g ai/ha): 20; Wheat, Winter plant response rating ([10]; Postemergence, 125 g ai/ha): 25; Wheat, Winter plant response rating ([10]; Postemergence, 250 g ai/ha): 50; Wheat, Winter plant response rating ([10]; postemergence, 62 g ai/ha): 20
